We go through three molecules from patent US20110312986A1, “Composition and Method for Treating Overactive Bladder” (ALLERGAN, INC., priority 2010, published 2011).

Molecules are shown by their SMILES. Where two headings read alike, the source gives them in different places.

One series in a line: clinical. As to conditions: both, human, plasma, oral.
A short description of series [1]: Steady-state plasma pharmacokinetics of Trospium in subjects 65 years or older with overactive bladder symptoms (Example 1). As to conditions: Day 10, 60 mg Trospium daily for 10 days. The format is in vivo, human. The method, then:
(§1) A single-center, single-blind, randomized, placebo-controlled, parallel group study was conducted to evaluate whether Trospium permeates across the human blood-brain barrier and whether Trospium could cause cognitive impairment.

Series [2] is described as follows: Trospium in cerebrospinal fluid: permeation across the blood-brain barrier (Example 1). The format is in vivo, human. Here is the method:
as §1
For cerebrospinal fluid sampling at each pharmacokinetics time point, about 2.5 mL of cerebral spinal fluid was collected on Day 10 at 0 hr, 2 hr, 5 hr, 7 hr, 12 hr, and 24 hr post dose.

Series [3] in a line: Neuropsychology testing: HVLT-R and BVMT-R, reliable change index (Example 1). It is filed as in vivo, human. Here is the method: as §1
For neuropsychology testing, each subject underwent the Hopkins Verbal Learning Test-Revised (HVLT-R) and the Brief Visuospatial Memory Test-Revised (BVMT-R) on Days 0, 9, and 10. Pre-dose (Day 0) and post-dose (Day 10) results on the neuropsychology tests were compared using a reliable change index to assess a change in learning of memory.

The conditions of series [4]: through tubular secretion and glomerular filtration; cited from earlier work.
For series [5] the following is noted: for Trospium Ae,0-24 (amount excreted unchanged in urine) / Trospium Ae,0-24/Dose (percentage of dose excreted in urine) / Trospium CLss/F (oral clearance) / Tmax: steady state; for Tmax: Trospium Tmax.
For series [6] the following is noted: metabolite of Trospium; cited from earlier work.
Setting [7] is: 60 mg Trospium with 500 mg Metformin.
Setting [8] is: Glucophage/Sanctura XR regime (co-administered with 500 mg Metformin twice daily), N = 43.
Setting [9] is: Trospium with Metformin versus Trospium alone.
[10] abbreviates: both, human, plasma, oral, 60 mg.
Setting [11] is: column headed Glucophage ® Dosage Regime, N = 44, 60 mg Trospium daily for 10 days alone.

Regarding `CN(C)C(=N)N=C(N)N` [Metformin, N,N-dimethylimidodicarbonimidic diamide], in the series “clinical”, the concentration at 11 hr worked out at 155 ng/mL and the concentration at 15 hr is 83 ng/mL.

Turning to `O=C(OC1CC2CCC(C1)[N+]21CCCC1)C(O)(c1ccccc1)c1ccccc1.[Cl-]` (stereo not shown) [Trospium, 3-(2-hydroxy-2,2-diphenylacetoxy) spiro[bicyclo[3.2.1]octane-8,1′-pyrrolidin]-1′-ium chloride], in series [1] (0 hr post dose), the “Trospium concentration in plasma” value is reported as 522 pg/mL. Moreover, the “Trospium concentration in plasma” value in series [1] (5 hr post dose) was 925 pg/mL. In series [1] (24 hr post dose), the “Trospium concentration in plasma” value came to 649 pg/mL. For the same molecule, in series [1], the “Time of peak plasma concentration post-dosing” value turned out to be 5 h. In addition, the AUC(0-t) in series [1] (both sexes, human, plasma, linear trapezoidal rule, read-out: AUC0-24, steady state) was found to be 18500 ng·h/mL. In series [1] (both sexes, human, plasma, read-out: Peak plasma concentration (Cmax)), the Cmax turned out to be 0.925 ng/mL. The “Trospium concentration in cerebrospinal fluid” value in series [2] (0 hr post dose, Day 10, 60 mg Trospium daily for 10 days) is <40 pg/mL. Besides, the “Trospium concentration in cerebrospinal fluid” value in series [2] (5 hr post dose, Day 10, 60 mg Trospium daily for 10 days) is <40 pg/mL. The “Trospium concentration in cerebrospinal fluid” value in series [2] (24 hr post dose, Day 10, 60 mg Trospium daily for 10 days) is listed as <40 pg/mL. The “Trospium in cerebrospinal fluid, all 72 samples” value in series [2] (Day 10, 0 to 24 hr post dose, detectable range 40 pg/mL) is reported as < 40 pg/mL. In addition, the concentration at 5 h in series [2] (both sexes, human, cerebrospinal fluid, 5 hr post dose, Day 10, 60 mg Trospium daily for 10 days) is < 0.04 ng/mL. In addition, the “Crossing of the blood-brain barrier” value in series [2] (conclusion from the cerebrospinal fluid levels) is recorded as “does not cross the blood-brain barrier”. Also, the “Net drug effect on cognition (HVLT-R, BVMT-R)” value in series [3] (Day 0 versus Day 10, one subject deteriorated on total recall in both tests) was “no meaningful net drug effect on cognition”. In addition, in series [3] (conclusion from the neuropsychology testing), the “Cognitive impairment or memory loss” value is on record as “does not cause cognitive impairment or memory loss”. Moreover, the “Share of the absorbed dose excreted unchanged in the urine” value in series [4] is 60%. In addition, in series [5] (setting [7]), the “Reduction of steady-state AUC0-24 of Trospium by co-administered Metformin” value is recorded as ~29% and the “Reduction of steady-state Cmax of Trospium by co-administered Metformin” value was “approximately 34%”. In addition, in series [5] (setting [8]), the “Trospium Ae,0-24 (amount excreted unchanged in urine)” value stood at 0.281 ± 0.156 mg, the “Trospium Ae,0-24/Dose (percentage of dose excreted in urine)” value worked out at 0.468 ± 0.260% and the “Trospium CLss/F (oral clearance)” value was 4830 ± 2320 L/h. Moreover, in series [5] (setting [9]), the “Percentage Ratio and 90% CI of the Geometric Mean of AUC0-24 (Combination/Alone)” value is reported as 70.8 (66.2-75.7) %; the “Percentage Ratio and 90% CI of the Geometric Mean of Cmax (Combination/Alone)” value is listed as 66.3 (61.0-72.0) %. In series [5] (setting [10]), this molecule had an AUC(0-t) of 22.7 ng·h/mL, a Cmax of 1.87 ng/mL, a concentration at 0 hr of 0.676 ng/mL and a concentration at 1 hr of 0.831 ng/mL. Besides, in series [5] (setting [10]), the concentration at 2 hr stood at 1.36 ng/mL, the concentration at 3 hr was determined as 1.57 ng/mL, the concentration at 4 hr was 1.54 ng/mL and the concentration at 5 hr came out at 1.53 ng/mL. In series [5] (setting [10]), this molecule came in with a concentration at 6 hr of 1.66 ng/mL, a concentration at 8 hr of 1.12 ng/mL, a concentration at 10 hr of 0.878 ng/mL and a concentration at 12 hr of 0.781 ng/mL. In series [5] (setting [10]), the concentration at 16 hr was 0.676 ng/mL and the concentration at 24 hr was 0.655 ng/mL. For the same molecule, the Tmax in series [5] (both, human, plasma, oral, 60 mg, column headed Glucophage ® Dosage Regime, N = 44, 60 mg Trospium daily for 10 days alone) is ~4.42 h. In addition, the Tmax in series [5] (both, human, plasma, oral, Glucophage/Sanctura XR regime (co-administered with 500 mg Metformin twice daily), N = 43) is ~4 h. In addition, in series [5] (both, human, urine and plasma, oral, 60 mg), the CL renal is 307 mL/min. Further, in series [5] (setting [11]), the “Trospium Ae,0-24 (amount excreted unchanged in urine)” value is given as 0.400 ± 0.247 mg, the “Trospium Ae,0-24/Dose (percentage of dose excreted in urine)” value was determined as 0.667 ± 0.411% and the “Trospium CLss/F (oral clearance)” value came to 3510 ± 1920 L/h. The “Reduction in percentage of Trospium dose excreted in urine on co-administration of Metformin” value in series [5] (p value<0.0001) stood at 30%.

For `OC1C[C@H]2CC[C@@H](C1)[N+]21CCCC1` (stereo partly shown) [azoniaspironortropanol], in series [6], the “Pharmacological activity of the metabolite” value is “pharmacologically inactive”.
